Source: patent publication US9951049B2, “Pyrazole linked benzimidazole conjugates and a process for preparation thereof” (Council of Scientific & Industrial Reseach, priority 2014, dated 2018)

Assays:
[1] = system: HL-60(TB); assay: NCI SRB screen, HL-60(TB); assay type: cell-based; details: Homo sapiens, Leukemia, 48 h
[2] = system: MCF7; assay: NCI SRB screen, MCF7; details: Homo sapiens, MCF7, 48 h, read-out: GI50 values
[3] = system: Colon cancer cell lines; assay: NCI SRB screen, Colon panel average; details: Homo sapiens, 48 h, read-out: Log10 GI50 (converted)
[4] = system: OVCAR-5; assay: NCI SRB screen, OVCAR-5; details: Homo sapiens, OVCAR-5, 48 h, read-out: GI50 values
[5] = system: MDA-MB-435; assay: NCI SRB screen, MDA-MB-435 (Breast panel); details: Homo sapiens, MDA-MB-435, 48 h, read-out: GI50 values
[6] = system: Leukemia cell lines; assay: NCI SRB screen, Leukemia panel average; details: Homo sapiens, 48 h, read-out: Log10 GI50 (converted)
[7] = system: MDA-MB-231/ATCC; assay: NCI SRB screen, MDA-MB-231/ATCC; details: Homo sapiens, MDA-MB-231, 48 h, read-out: GI50 values
[8] = system: HCC-2998; assay: NCI SRB screen, HCC-2998; details: Homo sapiens, HCC 2998, 48 h, read-out: GI50 values
[9] = system: HCT-116; assay: NCI SRB screen, HCT-116; details: Homo sapiens, HCT-116, 48 h, read-out: GI50 values
[10] = system: COLO-205; assay: NCI SRB screen, COLO-205; details: Homo sapiens, COLO 205, 48 h, read-out: GI50 values
[11] = system: HT29; assay: NCI SRB screen, HT29; details: Homo sapiens, HT-29, 48 h, read-out: GI50 values
[12] = system: SK-MEL-5; assay: NCI SRB screen, SK-MEL-5; details: Homo sapiens, SK-MEL-5, 48 h, read-out: GI50 values, Melanoma, SK-MEL-5
[13] = system: Prostate cancer cell lines; assay: NCI SRB screen, Prostate panel average; details: Homo sapiens, 48 h, read-out: Log10 GI50 (converted)
[14] = system: CNS cancer cell lines; assay: NCI SRB screen, CNS panel average; details: Homo sapiens, 48 h, read-out: Log10 GI50 (converted)
[15] = system: TK-10; assay: NCI SRB screen, TK-10; details: Homo sapiens, TK-10, 48 h, read-out: GI50 values
[16] = system: UACC-62; assay: NCI SRB screen, UACC-62; details: Homo sapiens, UACC-62, 48 h, read-out: GI50 values
[17] = system: NCIH322M; assay: NCI SRB screen, NCIH322M; details: Homo sapiens, NCI-H322M, 48 h, read-out: GI50 values
[18] = system: Non-small-cell lung cancer cell lines; assay: NCI SRB screen, Non-small-cell lung panel average; details: Homo sapiens, 48 h, read-out: Log10 GI50 (converted)
[19] = system: NCI-H23; assay: NCI SRB screen, NCI-H23; details: Homo sapiens, NCI-H23, 48 h, read-out: GI50 values
[20] = system: SNB-75; assay: NCI SRB screen, SNB-75; details: Homo sapiens, SNB-75, 48 h, read-out: GI50 values
[21] = system: SNB-19; assay: NCI SRB screen, SNB-19; details: Homo sapiens, SNB-19, 48 h, read-out: GI50 values
[22] = system: Breast Cancer cell lines; assay: NCI SRB screen, Breast Cancer panel average; details: Homo sapiens, 48 h, read-out: Log10 GI50 (converted)
[23] = system: OVCAR-8; assay: NCI SRB screen, OVCAR-8; details: Homo sapiens, OVCAR-8, 48 h, read-out: GI50 values
[24] = system: Renal cancer cell lines; assay: NCI SRB screen, Renal panel average; details: Homo sapiens, 48 h, read-out: Log10 GI50 (converted)
[25] = system: SF-268; assay: NCI SRB screen, SF-268; details: Homo sapiens, SF-268, 48 h, read-out: GI50 values
[26] = system: HCT-15; assay: NCI SRB screen, HCT-15; details: Homo sapiens, HCT-15, 48 h, read-out: GI50 values
[27] = system: CCRF-CEM; assay: NCI SRB screen, CCRF-CEM; details: Homo sapiens, 48 h, read-out: GI50 values
[28] = system: HS 578T; assay: NCI SRB screen, HS 578T; details: Homo sapiens, 48 h, read-out: GI50 values
[29] = system: HOP-62; assay: NCI SRB screen, HOP-62; details: Homo sapiens, HOP-62, 48 h, read-out: GI50 values
[30] = system: SK-OV-3; assay: NCI SRB screen, SK-OV-3; details: Homo sapiens, SK-OV-3, 48 h, read-out: GI50 values
[31] = system: M14; assay: NCI SRB screen, M14; details: Homo sapiens, M14, 48 h, read-out: GI50 values
[32] = system: U251; assay: NCI SRB screen, U251; details: Homo sapiens, U-251, 48 h, read-out: GI50 values
[33] = system: SF-539; assay: NCI SRB screen, SF-539; details: Homo sapiens, 48 h, read-out: GI50 values
[34] = system: MOLT-4; assay: NCI SRB screen, MOLT-4; details: Homo sapiens, MOLT-4, 48 h, read-out: GI50 values

Compound | GI50 [1] [µM] | GI50 [2] [µM] | GI50 [3] [µM] | GI50 [4] [µM] | GI50 [5] [µM] | GI50 [6] [µM] | GI50 [7] [µM] | GI50 [8] [µM] | GI50 [9] [µM] | GI50 [10] [µM] | GI50 [11] [µM] | GI50 [13] [µM] | GI50 [14] [µM] | GI50 [15] [µM] | GI50 [16] [µM] | GI50 [17] [µM] | GI50 [18] [µM] | GI50 [19] [µM] | GI50 [20] [µM] | GI50 [21] [µM] | further results
COc1cc(-c2cc(-c3nc4cc(Cl)ccc4[nH]3)[nH]n2)cc(OC)c1OC [8f, 5-chloro-2-(3-(3,4,5-trimethoxyphenyl)-1H-pyrazol-5-yl)-1H-benzo[d]imidazole] | 2.49 | 2.17 | 3.98 | 1.21 | 2.33 | 2.45 | 3.94 | 5.98 | 3.45 | 3.18 | 4.14 | 2.88 | 3.72 | 3.52 | 1.97 | 3.65 | 2.75 | 2.73 | 2.71 | 7.25 | GI50 [12]: 1.62 µM; GI50 [22]: 2.57 µM; GI50 [23]: 2.26 µM; GI50 [24]: 3.16 µM; GI50 [25]: 3.6 µM; GI50 [26]: 2.9 µM; GI50 [27]: 2.48 µM; GI50 [28]: 3.58 µM; GI50 [29]: 3.11 µM; GI50 [30]: 4.47 µM; GI50 [31]: 2.92 µM; GI50 [32]: 3.38 µM; GI50 [33]: 4.66 µM; GI50 [34]: 2.02 µM
COc1ccc2[nH]c(-c3cc(-c4cc(OC)c(OC)c(OC)c4)n[nH]3)nc2c1 [9f, 5-methoxy-2-(3-(3,4,5-trimethoxyphenyl)-1H-pyrazol-5-yl)-1H-benzo[d]imidazole] | 1.69 | 2.15 | 2.29 | 3.03 | 0.38 | 1.26 | 2.87 | 3.03 | 1.81 | 1.61 | 2.76 | 1.55 | 2.45 | 2.21 | 1.12 | 2.47 | 1.48 | 1.34 | 2.23 | 2.98 | GI50 [22]: 1.15 µM; GI50 [23]: 1.15 µM; GI50 [24]: 2.24 µM; GI50 [25]: 2.74 µM; GI50 [26]: 2.5 µM; GI50 [27]: 1.29 µM; GI50 [28]: 2.89 µM; GI50 [29]: 2.02 µM; GI50 [30]: 2.83 µM; GI50 [31]: 1.66 µM; GI50 [32]: 2.9 µM; GI50 [33]: 2.42 µM; GI50 [34]: 0.73 µM
COc1cc(-c2cc(-c3nc4ccccc4[nH]3)[nH]n2)cc(OC)c1OC [6f, 2-(3-(3,4,5-trimethoxyphenyl)-1H-pyrazol-5-yl)-1H-benzo[d]imidazole] | 2.54 | 2.79 | 4.79 | 1.3 | 0.93 | 2.29 | 3.22 | 7.1 | 3.15 | 3.98 | 7.16 | 2.88 | 5.25 | 4.07 | 1.64 | 2.85 | 2.4 | 2.26 | 2.83 | 1.78 | GI50 [12]: 1.34 µM; GI50 [22]: 2.24 µM; GI50 [23]: 2.35 µM; GI50 [24]: 2.63 µM; GI50 [25]: 6.43 µM; GI50 [26]: 3.43 µM; GI50 [27]: 2.12 µM; GI50 [28]: 6.89 µM; GI50 [29]: 3.54 µM; GI50 [30]: 3.48 µM; GI50 [31]: 2.57 µM; GI50 [32]: 3.73 µM; GI50 [33]: 5.11 µM; GI50 [34]: 2.13 µM
